Results from US20140134178A1, “PHOSPHORYLATION OF HISTONES AND USES THEREOF” (H. LEE MOFFITT CANCER CENTER AND RESEARCH INSTITUTE, priority 2012, published 2014).
“Also recorded” adds a separate entry of the source.

Tested on: S. cerevisiae wildtype and H2BY40A mutants
Assay: Yeast spot growth assay on YPD plates with MMS
Format: cell-based, Saccharomyces cerevisiae
Conditions: in contrast to wild type cells, growth 72 h post-plating
Experimental: Wt and H2BY40A mutants were serially diluted and spotted on YPD plates in the absence or presence of MMS and growth was assessed 72 h post-plating.
To test whether excess of histones interfere with the ability of cells to repair DNA damage, S. cerevisiae wildtype (Wt) and H2BY40A mutants were exposed to DNA alkylating agent Methylmethane sulphonate (MMS). MMS inhibits DNA replication by methylating adenine or guanine in the DNA to cause base mispairing and stalling of replication forks, until the mutated/alkylated bases are excised out and replaced with the normal bases by the DNA alkyl transferases or the nucleotide repair machinery. […] Rad53 is a functional homologue of human Chk1 and Chk2 in budding yeast. It not only senses DNA replication stress during S phase but also acts as a surveillance machinery to detect excess histones that are not packaged into chromatin and targets them for degradation.

COS(C)(=O)=O [MMS, Methylmethane sulphonate]
sensitivity of H2BY40A mutants: acute sensitivity; also recorded: marked sensitivity
